Measurements published in PubChem BioAssay (NCI).
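Dose response: 5 concentrations. Exposure: 48 h. Format: 96-well plates. Endpoint: linear interpolation; highest concentration if not reached. Abbreviation: GI50, concentration required for 50% inhibition of growth. TGI marks complete inhibition of growth.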

Tests used:
Assay in all cases: DTP human tumour cell line panel, 48 h
OVCAR-5 ovarian = test system: OVCAR-5 ovarian
SR leukemia = test system: SR leukemia
SK-MEL-28 melanoma = test system: SK-MEL-28 melanoma
NCI/ADR-RES ovarian = test system: NCI/ADR-RES ovarian
CAKI-1 renal = test system: CAKI-1 renal
UACC-257 melanoma = test system: UACC-257 melanoma
OVCAR-3 ovarian = test system: OVCAR-3 ovarian
ACHN renal = test system: ACHN renal
SF-268 CNS = test system: SF-268 CNS
T-47D breast = test system: T-47D breast

| Compound | TGI (OVCAR-5 ovarian) [µM] | TGI (SR leukemia) [µM] | TGI (SK-MEL-28 melanoma) [µM] | TGI (NCI/ADR-RES ovarian) [µM] | TGI (CAKI-1 renal) [µM] | TGI (UACC-257 melanoma) [µM] | TGI (OVCAR-3 ovarian) [µM] | TGI (ACHN renal) [µM] | TGI (SF-268 CNS) [µM] | TGI (T-47D breast) [µM] | GI50 (OVCAR-5 ovarian) [µM] | GI50 (SR leukemia) [µM] | GI50 (SK-MEL-28 melanoma) [µM] | GI50 (NCI/ADR-RES ovarian) [µM] | GI50 (CAKI-1 renal) [µM] | GI50 (UACC-257 melanoma) [µM] | GI50 (OVCAR-3 ovarian) [µM] | GI50 (ACHN renal) [µM] | GI50 (SF-268 CNS) [µM] | GI50 (T-47D breast) [µM] |
| --- | --- | --- | --- | --- | --- | --- | --- | --- | --- | --- | --- | --- | --- | --- | --- | --- | --- | --- | --- | --- |
| OC(COc1ccc(Cl)cc1Cl)CN1CCCC1 (centres undefined) | > 100 | > 100 | > 100 | > 100 | > 100 | 60.2 | > 100 | > 100 | > 100 | > 100 |  |  |  |  |  |  |  |  |  |  |
| Cc1cc[c-]cc1.Fc1c[c-]c(-c2ccccn2)c(F)c1.N#CCC[PH+](CCC#N)c1ccccc1.[Pt+2] | 19.6 | 10 | 4.84 | 52.8 | 14.1 | 4.41 | 13.1 | 20.9 | 39.5 | 41.1 | 3.79 | 2.22 | 2.18 | 4.24 | 2.7 | 1.9 | 3.26 | 3.33 | 3.19 | 2.79 |
| O=C1OCC2=C1C(c1cccc(F)c1)c1cc3c(cc1N2CCO)OCCO3 (centres undefined) | > 50 | > 50 | > 50 | > 50 | > 50 | > 50 |  | > 50 | > 50 | > 50 | 0.541 | 0.078 | 1.5 | 0.208 | 0.144 | > 20 | 0.142 | 0.386 | 0.381 | 0.203 |
| N/C(=N\OC(=O)NC(Cl)=C(Cl)Cl)c1cc(C(F)(F)F)cc(C(F)(F)F)c1 | 38.3 | 26.2 | 32.8 | 47.2 | 33.8 | 31.1 | 28.6 | 27.4 | 45.6 | 25.7 |  |  |  |  |  |  |  |  |  |  |
| O=C1Nc2ccccc2C12CC(c1ccccc1)=NN2 (centres undefined) | 96.1 | 34.8 | > 100 | > 100 | > 100 | > 100 | 80.7 | > 100 | > 100 | > 100 | 16.4 | 3.64 | 15.7 | 7.49 | 7.57 | 5.02 | 5.1 | 6.48 | 11.9 | 6.98 |
| O=C1C2C(C(=O)[N]1[Hg][c]1ccccc1)C1(Cl)C(Cl)=C(Cl)C2(Cl)C1(Cl)Cl (centres undefined) | 5.29 | 3.46 | 2.73 | 8.97 | 4.99 | 2.52 | 0.467 | 3.07 | 3.71 | 1.58 | 2.82 | 0.41 | 1.38 | 2.69 | 1.67 | 1.22 | 0.229 | 1.69 | 1.64 | 0.225 |
| O=C1CC(c2ccccc2)Cc2nc3ccc(Cl)cc3cc21 (centres undefined) | > 100 | 35.2 | > 100 | 5.21 | > 100 | > 85.4 | 1.16 | > 100 | > 100 | > 89 | 0.791 | 0.0553 | 1.05 | 0.0586 | 0.112 | 15.6 | 0.313 | 0.261 | 6.04 | 6.17 |
| CN(C)CCCNC(=O)c1cc2c3ccccc3[nH]c2c2ncccc12 | > 100 | 67.1 | 31.1 | 66.1 | 56.5 | 32.4 | 54.9 | 68.2 | 64.1 | 61.2 | 20.3 | 14.5 | 14.3 | 19.2 | 7.83 | 15 | 16.3 | 5.23 | 16.7 | 19.4 |
| CC12C=CC(C)(O1)C1C2c2ccccc2S1(=O)=O (centres undefined) | > 100 | > 100 | > 100 | > 100 | > 100 | > 100 | > 100 | > 100 | > 100 | > 100 | > 100 | 15.6 | 91.9 | > 100 | 82 | 41.7 | 52.7 | 69.2 | 68 | 95.5 |
| COc1ccc(N2CCN(CC(=O)N3CCN(c4nnc(-c5ccccc5)c(-c5ccccc5)n4)CC3)CC2)cc1 | > 100 | 6.97 | > 100 | > 100 | > 100 | > 90.6 | > 93.4 | > 100 | > 100 | 18.5 | > 100 | 2.41 | 11.9 | 8.68 | 11.6 | 27.1 | 4.92 | 7.94 | 9.16 | 2.56 |
| COC(=O)Nc1nc2c(OC)c(OC)c(OC)cc2[nH]1 | > 100 | > 75.7 | > 100 | 97.6 | > 100 | > 100 | 49.1 | > 100 | > 100 | > 100 | 49.6 | 3.39 | 52.4 | 8.91 | 15.7 | > 100 | 15.6 | 81.9 | 59.2 | 33.2 |
| Cc1cc(C)cc(Nc2nccc(-c3c(-c4ccc(F)cc4)ncn3C3CCNCC3)n2)c1 | 3.98 | 3.61 | 3.26 | 4.07 | 2.72 | 4.17 | 2.87 | 1.79 | 3.96 | 3.79 | 1.67 | 1.01 | 1.78 | 1.79 | 1.24 | 2.09 | 1.39 | 0.46 | 1.48 | 1.42 |
